US20190054054A1, “Methods reducing or preventing oxidation of high density lipoprotein (HDL)” (Amarin Pharmaceuticals Ireland Limited, priority 2017, published 2019)

Columns and labels:
HUVECs [1] = assay: NO and ONOO^− release from pretreated HUVECs exposed to native LDL undergoing oxidation (Example 11, Objective 3); format: cell-based, human; details: cells pretreated 30 min, agents each at 10 μM; native LDL 11 mg/dL pretreated with the same agents under auto-oxidation; 60 min
Experimental: (§1) The omega-3 fatty acid, cis-5,8,11,14,17-eicosapentaenoic acid (EPA) and docosahexaenoic acid (DHA) were purchased from Sigma-Aldrich (Saint Louis, Mo.) and solubilized in redistilled ethanol to 11 mM under nitrogen atmosphere. EPA and DHA stock solutions were stored at −20° C. until use.
(§2) Human umbilical vein endothelial cells (HUVECs) were obtained from healthy, female donors and isolated into primary, proliferating cell cultures (Clonetics, San Diego, Calif.). The cells were incubated in 95% air/5% CO2 at 37° C. and passaged by an enzymatic (trypsin) procedure. The confluent cells (4 to 5×10^5 cells/35 mm dish) were plated with minimum essential medium containing 3 mM L-arginine and 0.1 mM BH4 [(6R)-5,6,7,8-tetrahydrobiopterin]. Before experimental use, the cells (from second or third passage) were rinsed twice with Tyrode-HEPES buffer with 1.8 mM CaCl2.
(§3) Venous blood was collected from healthy volunteers into vacutainer tubes containing sodium EDTA. Plasma was separated by centrifugation at 3000 g for 25 min at 4° C. and adjusted to a density of 1.020 g/mL with KBr. Triglyceride-rich lipoproteins (TGRL) and LDL fractions were isolated by sequential centrifugation at 70,000 rpm at 4° C. in a Beckman LE-80 ultracentrifuge using a Beckman 50.4Ti rotor (Beckman Coulter, Inc., Fullerton, Calif.). The TGRL fraction (with a relative density of <1.020) was aspirated from the top of the centrifugate and discarded, leaving an LDL-enriched infranate (with a relative density of 1.020-1.063). The LDL subfraction was retained for additional experimentation. Plasma and lipoprotein fractions were maintained at 4° C. and protected from excessive exposure to light. Prior to oxidation experiments, EDTA was removed from the lipoprotein fraction using PD-10 desalting columns (GE Healthcare, Piscataway N.J.). After equilibration of the column with phosphate buffered saline (PBS), 2.5 mL of the lipoprotein fraction was loaded on the column and the flow-through discarded. The lipoprotein was then eluted with 3 mL of PBS. The LDL fractions were further diluted with PBS to obtain a 100 μg/mL apoB100 concentration.
(§4) LDL underwent oxidation following the addition of 10 μM CuSO4. […] Sample TBARS concentrations were determined spectrophotometrically by measuring sample absorbances against a standard curve derived from the hydrolysis of 1,1,3,3-tetramethoxypropane. […]
(§5) The amperometric method (with a response time of 0.1 ms) provides a quantitative signal (current) that is directly proportional to changes (from basal levels) in NO or ONOO^− concentration. […] Basal NO or ONOO^− levels were measured by differential pulse voltammetry in separate experiments. […]

HUVECs [2] = assay: NO and ONOO^− release from HUVECs treated concomitantly with agents and oxLDL (Example 11, Objective 2); format: cell-based, human; details: oxLDL 11 mg/dL treated 30 min with agents, each at 10 μM; cells exposed 60 min
Experimental: as §1, §2, §3, §4, §5

human sdLDL = assay: Copper-induced sdLDL oxidation, TBARS after 2 hr (Example 6); format: biochemical; details: for reduction of TBARS levels compared to vehicle-treated controls: 10 μM CuSO4
Experimental: An experiment to study the antioxidant effect of EPA in small dense […] performed. […] Vitamin E (α-tocopherol) was purchased from Sigma-Aldrich and prepared in ethanol at 1.0 mM (E=[…] cm^-1 at 294 nm) just prior to experimental use. All test compounds were further diluted in ethanol or aqueous buffer as needed. Venous blood was collected from healthy volunteers into vacutainer tubes containing sodium EDTA. Plasma was separated by centrifugation at 3000 g for 25 min at 4° C. and adjusted to a density of 1.020 g/mL with KBr. Triglyceride-rich lipoproteins (TGRL) and LDL fractions were then isolated by sequential centrifugation at 70,000 rpm at 4° C. in a Beckman LE-80 ultracentrifuge using a Beckman 50.4Ti rotor (Beckman Coulter, Inc., Fullerton, Calif.). The TGRL fraction (with a relative density of <1.020) was aspirated from the top of the centrifugate and discarded, leaving an LDL-enriched […] relative density of 1.020 to 1.063). […] The sdLDL subfraction was retained for additional experimentation. Plasma and lipoprotein fractions were maintained at 4° C. and protected from excessive exposure to light. Prior to oxidation experiments, EDTA was removed from the lipoprotein fraction using PD-10 desalting columns (GE Healthcare, Piscataway N.J.). After equilibration of the column with phosphate buffered saline (PBS), 2.5 mL of the lipoprotein fraction was loaded on the column and the flow-through discarded. The lipoprotein was then eluted with 3 mL of PBS. […] Data are presented as mean+S.D. for (N) separate samples or treatment groups. Differences between groups were analyzed using the two-tailed, Student's t-test (for comparisons between only two groups) or ANOVA followed by Dunnett or Student-Newman-Keuls multiple comparisons post-hoc analysis (for comparisons between three or more groups).

Compound	NO (HUVECs [1])	ONOO^− (HUVECs [1])	NO (HUVECs [2])	ONOO^− (HUVECs [2])	reduction of TBARS levels compared to vehicle-treated controls (human sdLDL; 1.0 μM) [%]	reduction of TBARS levels compared to vehicle-treated controls (human sdLDL; 10.0 μM) [%]	effect on sdLDL oxidation over the concentration range (human sdLDL; 1.0 μM to 10.0 μM)
CC/C=C\C/C=C\C/C=C\C/C=C\C/C=C\C/C=C\CCC(=O)O [DHA, docosahexaenoic acid]	406 ± 40	212 ± 26	362 ± 39	240 ± 27			
CC/C=C\C/C=C\C/C=C\C/C=C\C/C=C\CCCC(=O)O [EPA, cis-5,8,11,14,17-eicosapentaenoic acid]	419 ± 37	207 ± 24	385 ± 43	232 ± 24	13	57	
Cc1c(C)c2c(c(C)c1O)CC[C@@](C)(CCC[C@H](C)CCC[C@H](C)CCCC(C)C)O2 [vitamin E, α-tocopherol]						26	did not inhibit sdLDL oxidation except at the highest concentration
